Data from US4914191A, “Anthracycline derivatives having cytostatic activity” (Behringwerke Aktiengesellschaft, priority 1987, dated 1990).
≈ marks a conversion by molar mass, not a printed value. Counter-ions that a name gives are not always drawn. Like-named read-outs stand apart in the source and are kept apart here.

Columns and labels:
[1] = test system: L1210 leukemia cells; assay: cross-resistance in vitro, MTT assay on sensitive and adriamycin (doxorubicin)-resistant L1210 leukemia cells; format: cell-based, mouse; conditions: for Degree of cross-resistance to adriamycin / Degree of resistance of the cell: 3d incubation; for Degree of resistance of the cell: IC50 resistant subline relative to IC50 sensitive line
Method: L1210, A 549 or HT 29 in the exponential phase of growth are incubated in a cell density of 5×10^3 cells/ml in RPMI 1640 in a 96-well microtiter plate for 72 hours with various concentrations of the test substance at 37° C., 5% CO2 and 95% relative humidity. Control experiments contain merely growth medium in place of the test substance. Each test substance and the control are determined in quadruplicate. After incubation for 65 hours, 50 μl of MTT solution (2.5 mg/ml in phosphate-buffered saline) are added. In the presence of live cells, MTT is reduced to a dark-red insoluble formazan dyestuff. This reaction is complete after 7 hours (L1210 cells) or after 24 hours (A 549, HT 29 cells), and the supernatant medium is carefully removed by aspiration. The insoluble dyestuff is dissolved by addition of 100 μl of DMSO, and the extinction of the resulting solution at a wavelength of 492 nm is then measured for each well in a Flow 340 CC multiscan photometer.
The ratio of the extinctions of treated and untreated cells yields a dose-effect plot from which the concentration which just kills 50% of the cells (IC50) can be read off. The coefficient of variation for repeat tests is less than 15%.
The cross-resistance between the particular test compound and doxorubicin is determined using the MTT assay (for method, see above) on sensitive and resistant L1210 leukemia cells.
The resistant cell line was established by incubation of a sensitive subline with stepwise increasing concentrations of the reference compound.
The IC50 of the test compound on the resistant subline relative to the IC50 of the sensitive subline yields the degree of resistance both for the test compound (DR(T)) and for the reference compound (DR(R)) in accordance with the formula [formula]
In addition, the degree of cross-resistance (DCR) for the test compound is calculated in accordance with the formula [formula]
In the case where the loss of activity of the test compound on the resistant line related to the sensitive line is greater than that of the reference compound, a degree of cross-resistance of more than 100% is possible.

[2] = test system: L1210 mouse leukemia cells; assay: formation of colonies of L1210 leukemia cells in soft agar; format: cell-based; conditions: for IC50: Mus musculus
Method: The cytostatic activity of the compounds according to the invention was tested using L1210 mouse leukemia cells. This made use of the formation of colonies of L1210 leukemia cells in agar plates. This method is used to detect the effect of the test substances on the growth behavior of the cells over 1 hour or over several generations. With a cell cycle lasting 10-12 hours, this means that about 14 consecutive generations are observed in a test lasting 7 days. In this test, the substances having cytostatic activity according to the invention bring about a reduction in the number of colonies to be observed by comparison with an untreated control sample.
500 leukemia cells per plate were incubated with various concentrations of the test substance at 37° C. for 1 hour. These cells were then washed twice with McCoy5A medium and finally, after addition of 0.3% agar, poured into Petri dishes. Controls were incubated only with fresh medium. In some cases, in place of the incubation for one hour, various concentrations of test substances were mixed with the upper agar layer in order in this way to achieve continuous exposure of the cells throughout the incubation time. After the agar had solidified, the plates were incubated at 37° C. in an incubator for 7 days (5% by vol. CO2, 95% relative humidity). The number of colonies with a diameter of more than 60 μm which had formed was then counted. The results have been given as the number of colonies in treated agar plates as a percentage of the untreated control. The IC50 was determined, as a measure of the activity of the substance, from the dose-effect plot obtained in this way.

[3] = approximative toxicity, intraperitoneal (LD50); conditions: in vivo, ip
From the text: *3xip,q3d: three intraperitoneal administrations with an interval of thre
1xip: one intraperitoneal administration

[4] = L1210, 168 h, read-out: Long-term incubation IC50, continuous exposure, 7 days, L1210 colony formation
[5] = L1210, read-out: 1 h Incubation IC50, 1 h incubation, then 7 days colony formation, L1210
[6] = one intraperitoneal administration, read-out: Approximative toxicity LD50, 1xip
[7] = 168 h, continuous exposure, 7 days, L1210 colony formation, read-out: Long-term incubation IC50
[8] = 1 h incubation, then 7 days colony formation, L1210, read-out: 1 h Incubation IC50
[9] = three intraperitoneal administrations with an interval of three days between each, read-out: Approximative toxicity LD50, 3xip, q3d
[10] = 1 h incubation, then 7 days colony formation, L1210
[11] = continuous exposure, 7 days, L1210 colony formation

Compound | IC50 [2, 4] | IC50 [2, 5] | LD50 [3, 6] | IC50 [2, 7] | IC50 [2, 8] | other results
COc1cccc2c1C(=O)c1c(O)c3c(c(O)c1C2=O)C[C@@](O)(C(=O)CO)C[C@@H]3O[C@H]1C[C@H](N)[C@H](O)[C@H](C)O1 [Adriamycin, reference compound] | 0.02 µg/mL (≈ 0.0368 µM) | 0.04 µg/mL (≈ 0.0736 µM) | – | – | – | Degree of cross-resistance to adriamycin [1]: 100.0%; Degree of resistance of the cell [1]: 60-80; resistance of the resistant cell line for doxorubicin ([1]; resistant L1210 line, 4320 min): 60-80 fold
CC[C@@]1(O)C[C@H](O[C@H]2C[C@H](N(C)C)[C@H](OC(=O)c3ccccc3)[C@H](C)O2)c2c(O)c3c(c(O)c2[C@H]1O[C@H]1C[C@H](N(C)C)[C@H](OC(=O)c2ccccc2)[C@H](C)O1)C(=O)c1cccc(O)c1C3=O [Compound 1, 7,10-O-Bis-(4'-O-benzoyl-α-L-rhodosaminyl)-β-rhodomycinone] | – | – | > 100 mg/kg | – | – | Degree of cross-resistance to adriamycin [1]: 0%; Degree of resistance of the cell [1]: 1.0
CC[C@@]1(O)C[C@H](O[C@H]2C[C@H](N(C)C)[C@H](OC(=O)c3ccccc3)[C@H](C)O2)c2c(O)c3c(c(O)c2[C@H]1O[C@H]1C[C@H](N(C)C)[C@H](OC(=O)c2ccccc2)[C@H](C)O1)C(=O)c1cccc(O)c1C3=O [Compound 2, HCl adduct of compound 1] | – | – | – | 0.095 µg/mL | > 1 µg/mL | LD50 [3, 9]: > 85 mg/kg
CC[C@@]1(O)C[C@H](O[C@H]2C[C@H](N(C)C)[C@H](OC(=O)c3ccc(OC)cc3)[C@H](C)O2)c2c(O)c3c(c(O)c2[C@H]1O[C@H]1C[C@H](N(C)C)[C@H](OC(=O)c2ccc(OC)cc2)[C@H](C)O1)C(=O)c1cccc(O)c1C3=O [Compound 3, 7,10-O-Bis-(4'-O-p-methoxybenzoyl-α-L-rhodosaminyl)-β-rhodomycinone] | 0.115 µg/mL (≈ 0.119 µM) | > 1 µg/mL | > 100 mg/kg | – | – | –
CC[C@@]1(O)C[C@H](O[C@H]2C[C@H](N(C)C)[C@H](OC(=O)c3ccc(OC)cc3)[C@H](C)O2)c2c(O)c3c(c(O)c2[C@H]1O[C@H]1C[C@H](N(C)C)[C@H](OC(=O)c2ccc(OC)cc2)[C@H](C)O1)C(=O)c1cccc(O)c1C3=O [Compound 4, HCl adduct of compound 3] | – | – | – | – | – | 1 h Incubation IC50 [2, 10]: > 1 µg/mL; Long-term incubation IC50 [2, 11]: 0.09 µg/mL
CC[C@@]1(O)C[C@H](O[C@H]2C[C@H](N(C)C)[C@H](OC(=O)c3ccc(C#N)cc3)[C@H](C)O2)c2c(O)c3c(c(O)c2[C@H]1O[C@H]1C[C@H](N(C)C)[C@H](OC(=O)c2ccc(C#N)cc2)[C@H](C)O1)C(=O)c1cccc(O)c1C3=O [Compound 5, 7,10-O-Bis-(4'-O-p-cyanobenzoyl-α-L-rhodosaminyl)-β-rhodomycinon] | 0.105 µg/mL (≈ 0.109 µM) | > 1 µg/mL | – | – | – | –
CC[C@@]1(O)C[C@H](O[C@H]2C[C@H](N(C)C)[C@H](OC(=O)c3ccc(C#N)cc3)[C@H](C)O2)c2c(O)c3c(c(O)c2[C@H]1O[C@H]1C[C@H](N(C)C)[C@H](OC(=O)c2ccc(C#N)cc2)[C@H](C)O1)C(=O)c1cccc(O)c1C3=O [Compound 6, HCl adduct of compound 5] | – | – | – | – | – | 1 h Incubation IC50 [2, 10]: > 1 µg/mL; Long-term incubation IC50 [2, 11]: 0.14 µg/mL
CC[C@@]1(O)C[C@H](O[C@H]2C[C@H](N(C)C)[C@H](OC(=O)c3ccc([N+](=O)[O-])cc3)[C@H](C)O2)c2c(O)c3c(c(O)c2[C@H]1O[C@H]1C[C@H](N(C)C)[C@H](OC(=O)c2ccc([N+](=O)[O-])cc2)[C@H](C)O1)C(=O)c1cccc(O)c1C3=O [Compound 7, 7,10-O-Bis-(4'-O-p-nitrobenzoyl-α-L-rhodosaminyl)-β-rhodomycinone] | 2.1 µg/mL (≈ 2.1 µM) | > 10 µg/mL | – | – | – | –
CC[C@@]1(O)C[C@H](O[C@H]2C[C@H](N(C)C)[C@H](OC(=O)c3ccc(Br)cc3)[C@H](C)O2)c2c(O)c3c(c(O)c2[C@H]1O[C@H]1C[C@H](N(C)C)[C@H](OC(=O)c2ccc(Br)cc2)[C@H](C)O1)C(=O)c1cccc(O)c1C3=O [Compound 8, 7,10-O-Bis-(4'-O-p-bromobenzoyl-α-L-rhodosaminyl)-β-rhodomycinone] | 0.3 µg/mL (≈ 0.281 µM) | > 10 µg/mL | – | – | – | –
CC[C@@]1(O)C[C@H](O[C@H]2C[C@H](N(C)C)[C@H](OC(C)=O)[C@H](C)O2)c2c(O)c3c(c(O)c2[C@H]1O[C@H]1C[C@H](N(C)C)[C@H](OC(C)=O)[C@H](C)O1)C(=O)c1cccc(O)c1C3=O [Compound 9, 7,10-O-Bis-(4'-O-acetyl-α-L-rhodosaminyl)-β-rhodomycinone] | – | – | 3.4 to 6.5 mg/kg | 0.026 µg/mL (≈ 0.0331 µM) | 0.06 µg/mL (≈ 0.0764 µM) | Degree of cross-resistance to adriamycin [1]: 6.0%; Degree of resistance of the cell [1]: 6.0
CCC(=O)O[C@@H]1[C@H](C)O[C@@H](O[C@H]2C[C@](O)(CC)[C@H](O[C@H]3C[C@H](N(C)C)[C@H](OC(=O)CC)[C@H](C)O3)c3c(O)c4c(c(O)c32)C(=O)c2c(O)cccc2C4=O)C[C@@H]1N(C)C [Compound 10, 7,10-O-Bis-(4'-O-propionyl-α-L-rhodosaminyl)-β-rhodomycinone] | – | – | – | 0.12 µg/mL (≈ 0.148 µM) | 0.25 µg/mL (≈ 0.308 µM) | –
CC[C@@]1(O)C[C@H](O[C@H]2C[C@H](N(C)C)[C@H](OC(=O)c3ccc(OC)cc3)[C@H](C)O2)c2c(O)c3c(c(O)c2[C@H]1O[C@H]1C[C@H](N(C)C)[C@H](O)[C@H](C)O1)C(=O)c1cccc(O)c1C3=O [Compound 12a, 7-O-[(4'-O-p-methoxybenzoyl)-α-L-rhodosaminyl]-10-O-α-L-rhodosaminyl-β-rhodomycinone] | – | – | – | 0.0085 µg/mL (≈ 0.0102 µM) | 0.13 µg/mL (≈ 0.156 µM) | Degree of cross-resistance to adriamycin [1]: 1.3%; Degree of resistance of the cell [1]: 0.75; LD50 [3, 9]: 10 to 15 mg/kg
CC[C@@]1(O)C[C@H](O[C@H]2C[C@H](N(C)C)[C@H](O)[C@H](C)O2)c2c(O)c3c(c(O)c2[C@H]1O[C@H]1C[C@H](N(C)C)[C@H](OC(=O)c2ccc(OC)cc2)[C@H](C)O1)C(=O)c1cccc(O)c1C3=O [Compound 12b, 7-O-α-L-rhodosaminyl-10-O-[4"-O-(p-methoxybenzoyl)-α-L-rhodosaminyl]-β-rhodomycinone] | – | – | – | 0.011 µg/mL (≈ 0.0132 µM) | 0.1 µg/mL (≈ 0.12 µM) | Degree of cross-resistance to adriamycin [1]: 5.0%; Degree of resistance of the cell [1]: 5.0; LD50 [3, 9]: 5.33 to 10.7 mg/kg
CC[C@@]1(O)C[C@H](O[C@H]2C[C@H](N(C)C)[C@H](OC(=O)c3ccccc3)[C@H](C)O2)c2c(O)c3c(c(O)c2[C@H]1O)C(=O)c1cccc(O)c1C3=O [Compound 17, 7-O-(4'-O-benzoyl-α-L-rhodosaminyl)-β-rhodomycinone] | – | – | 1 to 10 mg/kg | 0.12 µg/mL (≈ 0.185 µM) | 0.9 µg/mL (≈ 1.39 µM) | –
CC[C@@]1(O)C[C@H](O[C@H]2C[C@H](N(C)C)[C@H](OC(=O)c3ccc(OC)cc3)[C@H](C)O2)c2c(O)c3c(c(O)c2[C@H]1O)C(=O)c1cccc(O)c1C3=O [Compound 18, 7-O-(4'-O-p-Methoxybenzoyl-α-L-rhodosaminyl)-β-rhodomycinone] | – | – | 10 to 50 mg/kg | 0.075 µg/mL (≈ 0.111 µM) | 0.66 µg/mL (≈ 0.974 µM) | –
CC[C@@]1(O)C[C@H](O[C@H]2C[C@H](N(C)C)[C@H](OC(=O)c3ccc([N+](=O)[O-])cc3)[C@H](C)O2)c2c(O)c3c(c(O)c2[C@H]1O)C(=O)c1cccc(O)c1C3=O [Compound 19, 7-O-(4'-O-p-Nitrobenzoyl-α-L-rhodosaminyl)-β-rhodomycinone] | 0.03 µg/mL (≈ 0.0433 µM) | 0.55 µg/mL (≈ 0.794 µM) | > 50 mg/kg | – | – | –
CC[C@@]1(O)CCc2c(O)c3c(c(O)c2[C@H]1O[C@H]1C[C@H](N(C)C)[C@H](OC(=O)c2ccccc2)[C@H](C)O1)C(=O)c1cccc(O)c1C3=O [Compound 22, 10-O-(4'-O-Benzoyl-α-L-rhodosaminyl)-γ-rhodomycinone] | – | – | 1 to 10 mg/kg | 0.48 µg/mL (≈ 0.76 µM) | > 1 µg/mL | –
